Series [1] deals with T1, h-DHODH (Homo sapiens, UniProt Q02127).
T1 construct: endogenous in cells; host or cells: U937 cells (membrane fraction, solubilised with 1% octyl glucoside)
The series is described as follows: Dihydro-orotate dehydrogenase inhibition assay (U937 membrane preparations, DCIP reduction). In kind it is biochemical. As to conditions: U937 membrane preparation; for inhibition at 0.3 µM: compound tested at 0.3 uM (footnote *). The method, then:
Dihydro-Orotate Dehydrogenase Inhibition Assay
Dihydro-orotate dehydrogenase (DHODH) catalyzes the […] of dihydro-orotate to orotate during de novo biosynthesis of pyrimidines Inhibition of DHODH activity in U937 membrane preparations was measured by the dihydro-orotate driven reduction of 2,6 dichloroindophenol (DCIP).
U937 cells were homogenized in 20 mM Tris/HCl (pH 7.2) containing 1 mM EDTA. […] Following washes, the pellet was dissolved in 20 mM Tris/HCl containing 150 mM NaCl, 1 mM EDTA, and 1% octyl glucoside on ice for 1 h. Particulate matter was removed by centrifugation at 100000×g for 1 h at 4° C. […] The mixture was incubated at 37° C. for 4 h before measuring the change in absorbance on a plate reader (BMG Labtech., Germany) at 600 nm. Data were analyzed using GraphPad Prism. IC50 for each compound was determined based on the percent inhibition of dihydro-orotate […].

The test system of series [2] is IL-17. Put plainly: Inhibition of IL-17 release from mouse splenocytes (PMA + ionomycin, ELISA). The format is cell-based, Balb/c mice. The following applies: Splenocyte, 10 μM, 3 h. The method, then: 2. Inhibition of IL-17 Release from Mouse Splenocytes:
Splenocytes isolated from Balb/c mice were re-suspended in RPMI medium at a concentration of 1×10^6 cells/ml and seeded in a 6 well plate. Cells were incubated with desired concentrations of the inhibitor for 15 min prior to induction with 10 ng/ml PMA+1 μM ionomycin. After a 3 h incubation, supernatant was collected and analyzed for IL-17 concentration using an ELISA kit. Data were analyzed using GraphPad Prism. IC50 values for each compound were determined based on the percent inhibition due to the test compound compared to the control.
For orientation: An ELISA detects its analyte on a solid surface through an enzyme-linked reagent.

Data on 29 molecules can be found in patent US8686048B2, “Immunomodulator and anti-inflammatory compounds” (Rhizen Pharmaceuticals SA, priority 2010, dated 2014).

T1 sequence (Q02127 whole entry): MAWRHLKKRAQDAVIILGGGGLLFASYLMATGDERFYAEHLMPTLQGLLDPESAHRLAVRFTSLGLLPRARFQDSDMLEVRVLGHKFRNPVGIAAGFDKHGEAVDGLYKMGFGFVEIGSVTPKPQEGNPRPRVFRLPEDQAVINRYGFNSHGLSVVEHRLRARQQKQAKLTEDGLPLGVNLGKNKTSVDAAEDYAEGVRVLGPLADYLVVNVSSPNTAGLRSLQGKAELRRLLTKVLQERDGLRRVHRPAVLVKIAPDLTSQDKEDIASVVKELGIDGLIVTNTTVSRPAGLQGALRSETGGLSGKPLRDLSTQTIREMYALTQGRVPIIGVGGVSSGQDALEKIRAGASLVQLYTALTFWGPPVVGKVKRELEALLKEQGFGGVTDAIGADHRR

In turn, `CCCCOc1cccc(-c2c(F)c(F)c(NC(=O)c3ccccc3C(=O)O)c(F)c2F)c1` [Example 91, 2-(3′-butoxy-2,3,5,6-tetrafluorobiphenyl-4-ylcarbamoyl)benzoic acid] showed a melting point of 215.5 to 218.5 °C. In series [1] (1 uM), this molecule returned an inhibition at 1 µM of 42.4%.
In the case of `CCCOc1cccc(-c2ccc(NC(=O)c3ccccc3C(=O)O)cc2)c1` [Example 81, 2-(3′-propoxybiphenyl-4-ylcarbamoyl)benzoic acid], the melting point lay in the range of 152 to 154 °C. The inhibition at 10 µM in series [2] came to 23%. The inhibition at 0.3 µM in series [1] stood at 11.2%.
`CCSc1cccc(-c2cc(F)c(NC(=O)c3ccccc3C(=O)O)c(F)c2)c1` [Example 71, 2-[3′-(ethylthio)-3,5-difluorobiphenyl-4-ylcarbamoyl]benzoic acid]: the melting point lay within 137.8 to 142.1 °C. Moreover, the inhibition at 10 µM in series [2] is 27.8%. For the same molecule, at 1 µM the inhibition in series [1] (1 uM) was 84.8%. Also, the IC50 in series [1] is 53.5 nM.
Turning to `CCCCOc1cccc(-c2ccc(NC(=O)c3ccccc3C(=O)O)cc2)c1` [Example 96, 2-(3′-butoxybiphenyl-4-ylcarbamoyl)benzoic acid], the melting point is 155 to 157 °C.
In the case of `CC(C)Oc1cccc(-c2cc(F)c(NC(=O)c3ccccc3C(=O)O)c(F)c2)c1` [Example 25, 2-(3,5-Difluoro-3′-isopropoxybiphenyl-4-ylcarbamoyl)benzoic acid], the melting point lay within 122 to 125 °C. The inhibition at 10 µM in series [2] is 17.5%. This molecule registered an inhibition at 1 µM in series [1] (1 uM) of 60.2%.
The molecule `CCOc1cccc(-c2ccc(NC(=O)c3ccccc3C(=O)O)c(F)c2)c1` [Example 4, 2-(3′-Ethoxy-3-fluorobiphenyl-4-ylcarbamoyl)benzoic acid] registered a melting point of 151 to 157 °C. Also, in series [2], the inhibition at 10 µM came to 11.2%. In series [1] (1 uM), 1 µM produced 43% inhibition.
On the same counts, the results for `COc1cccc(-c2cc(F)c(NC(=O)c3nccnc3C(=O)O)c(F)c2)c1` [Example 6, 3-(3,5-Difluoro-3′-methoxybiphenyl-4-ylcarbamoyl)pyrazine-2-carboxylic acid] are 180.1 to 183.4 °C, 9.52% and 2.26%.
As for `CCSc1cccc(-c2c(F)c(F)c(NC(=O)c3ccccc3C(=O)O)c(F)c2F)c1` [Example 78, 2-[3′-(ethylthio)-2,3,5,6-tetrafluorobiphenyl-4-ylcarbamoyl]benzoic acid], the melting point lay within 158 to 160 °C. For the same molecule, the inhibition at 10 µM in series [2] stood at 11.1%. In series [1], this molecule displayed an inhibition at 0.3 µM of 32.9%.
In the case of `O=C(O)c1ccccc1C(=O)Nc1ccc(-c2ccccc2Cl)cc1` [Example 86, 2-(2′-chlorobiphenyl-4-ylcarbamoyl)benzoic acid], the melting point lay within 243 to 247 °C. Also, in series [2], the inhibition at 10 µM came out at 23.8%. The same molecule yielded an inhibition at 0.3 µM in series [1] of 33.6%.
Consider `O=C(O)c1cc(Cl)c(Cl)cc1C(=O)Nc1c(F)cc(-c2ccccc2Cl)cc1Cl` [Example 27, 4,5-Dichloro-2-(2′,3-dichloro-5-fluorobiphenyl-4-ylcarbamoyl)benzoic acid], for which the melting point lay within 202.3 to 206.5 °C. Besides, in series [2], the inhibition at 10 µM was 12.4%. The molecule also returned an inhibition at 1 µM in series [1] (1 uM) of 82.9%. Besides, inhibition in series [1] was half-maximal at 147 nM (IC50).
In turn, `COc1cccc(-c2ccc(NC(=O)c3ccccc3C(=O)O)cc2)c1` [Example 87, 2-(3′-methoxybiphenyl-4-ylcarbamoyl)benzoic acid] came in with a melting point of 243 to 247 °C. Besides, in series [2], the inhibition at 10 µM worked out at 20.9%. In series [1], the inhibition at 0.3 µM worked out at 30.2%.
In turn, `O=C(O)c1ccccc1C(=O)Nc1c(F)cc(-c2ccccc2Cl)cc1F` [Example 8, 2-(2′-Chloro-3,5-difluorobiphenyl-4-ylcarbamoyl)benzoic acid] had a melting point of 143.5 to 145.1 °C. The inhibition at 10 µM in series [2] was 35.4%. Besides, the inhibition at 1 µM in series [1] (1 uM) was 85.8%. In series [1], this molecule displayed a concentration for half-maximal inhibition (IC50) of 90 nM.
For `CCCCOc1cccc(-c2c(F)cc(NC(=O)c3ccccc3C(=O)O)cc2F)c1` [Example 98, 2-(3′-Butoxy-2,6-difluorobiphenyl-4-ylcarbamoyl)benzoic acid], the melting point fell in the range of 181.1 to 184.2 °C. The molecule further gave an inhibition at 1 µM in series [1] (1 uM) of 31%.
In turn, `CCCCOc1cccc(-c2ccc(NC(=O)c3ccccc3C(=O)O)cc2F)c1` [Example 97, 2-(3′-butoxy-2-fluorobiphenyl-4-ylcarbamoyl)benzoic acid] displayed a melting point of 164 to 167 °C.
`O=C(O)c1ccccc1C(=O)Nc1ccc(-c2cccc(OC3CC3)c2)cc1F` [Example 94, 2-(3′-cyclopropoxy-3-fluorobiphenyl-4-ylcarbamoyl)benzoic acid] registered a melting point of 134.5 to 137.5 °C. For the same molecule, the inhibition at 1 µM in series [1] (1 uM) was found to be 13.9%.
The like results for `CCCCOc1cccc(-c2ccc(NC(=O)c3ccccc3C(=O)O)c(F)c2)c1` [Example 92, 2-(3′-butoxy-3-fluorobiphenyl-4-ylcarbamoyl)benzoic acid] were, in that order, 102 to 105 °C and 9.65%.
With `CCc1c[nH]c2ccc(-c3cc(F)c(NC(=O)c4ccccc4C(=O)O)c(Cl)c3)cc12` [Example 100, 2-[2-Chloro-4-(3-ethyl-1H-indol-5-yl)-6-fluorophenylcarbamoyl]benzoic acid], the melting point is 98 to 102 °C. Testing at 1 µM in series [1] (1 uM) gave an inhibition of 58.7%.
On to `O=C(O)c1ccccc1C(=O)Nc1c(Cl)cc(-c2ccccc2Cl)cc1Cl` [Example 33, 2-(2′,3,5-Trichlorobiphenyl-4-ylcarbamoyl)benzoic acid], for which the melting point was in the range of 182 to 185 °C. The inhibition at 10 µM in series [2] was determined as 14%.
In turn, `COc1ccc(Cl)c(-c2ccc(NC(=O)c3ccccc3C(=O)O)cc2F)c1` [Example 79, 2-(2′-chloro-2-fluoro-5′-methoxybiphenyl-4-ylcarbamoyl)benzoic acid] came in with a melting point of 185 to 187 °C. In series [2], the inhibition at 10 µM turned out to be 24.6%.
The like results for `CCOc1cccc(-c2cc(F)c(NC(=O)c3nccnc3C(=O)O)c(Cl)c2)c1` [Example 11, 3-(3-Chloro-3′-ethoxy-5-fluorobiphenyl-4-ylcarbamoyl)pyrazine-2-carboxylic acid] were, in that order, 148 to 153 °C and 2.62%.
The like results for `CCSc1cccc(-c2c(F)cc(NC(=O)c3ccccc3C(=O)O)cc2F)c1` [Example 89, 2-[3′-(ethylthio)-2,6-difluorobiphenyl-4-ylcarbamoyl]benzoic acid] were, in that order, 162 to 167 °C and 25.5%.
Take `O=C(O)c1ccccc1C(=O)Nc1c(F)cc(-c2cccc(OC(F)(F)F)c2)cc1F` [Example 93, 2-[3,5-difluoro-3′-(trifluoromethoxy)biphenyl-4-ylcarbamoyl]benzoic acid]: the melting point lay in the range of 158 to 160 °C. Moreover, in series [1] (1 uM), the “h-DHODH % inhibition 1 uM” value came to 10.46%.
In turn, `O=C(O)c1ccccc1C(=O)Nc1ccc(-c2cccc(OC3CC3)c2)cc1` [Example 95, 2-(3′-cyclopropoxybiphenyl-4-ylcarbamoyl)benzoic acid] gave a melting point of 150.2 to 154.3 °C. The same molecule had an inhibition at 1 µM in series [1] (1 uM) of 1.49%.
On the same counts, the results for `CCCc1c[nH]c2ccc(-c3cc(F)c(NC(=O)c4ccccc4C(=O)O)c(F)c3)cc12` [Example 99, 2-[2,6-Difluoro-4-(3-propyl-1H-indol-5-yl)phenylcarbamoyl]benzoic acid] are 76 to 80 °C and 42.6%.
Turning to `Cc1c[nH]c2ccc(-c3cc(F)c(NC(=O)c4ccccc4C(=O)O)c(F)c3)cc12` [Example 63, 2-[2,6-difluoro-4-(3-methyl-1H-indol-5-yl)phenylcarbamoyl]benzoic acid], the inhibition at 10 µM in series [2] was 0%. In addition, the inhibition at 1 µM in series [1] (1 uM) turned out to be 76.7%. The same molecule registered an IC50 in series [1] of 22 nM.
The like results for `COc1ccc(Cl)c(-c2cc(F)c(NC(=O)c3ccccc3C(=O)O)c(F)c2)c1` [Example 45, 2-(2′-Chloro-3,5-difluoro-5′-methoxybiphenyl-4-ylcarbamoyl)benzoic acid] were, in that order, 48.5%, 96.2% and 44.1 nM.
Turning to `CCc1cccc(-c2cc(F)c(NC(=O)c3ccccc3C(=O)O)c(F)c2)c1` [Example 84, 2-(3′-ethyl-3,5-difluorobiphenyl-4-ylcarbamoyl)benzoic acid], in series [2], the inhibition at 10 µM was 12.1%. The same molecule had an inhibition at 0.3 µM in series [1] of 36.6%.
On to `C/C(O)=C(\C#N)C(=O)Nc1ccc(C(F)(F)F)cc1` [Teriflunomide, reference compound], for which the inhibition at 10 µM is 0% in series [2] and 77.2% in series [1] (compound tested at 10 uM).
As for `COc1ccc(-c2cc(F)c(NC(=O)c3ccccc3C(=O)O)c(Cl)c2)cc1OC` [Example 56, 2-(3-Chloro-5-fluoro-3′,4′-dimethoxybiphenyl-4-ylcarbamoyl)benzoic acid], in series [2], the inhibition at 10 µM was determined as 5.49%. The molecule also displayed an inhibition at 1 µM in series [1] (1 uM) of 1.77%.

The term inhibition denotes the share of the control response that was lost under treatment. A word on the melting point: it is the temperature, or range, at which the solid turns liquid. A word on the IC50: it is the midpoint of a concentration-inhibition curve. A low value points to inhibition by little substance.
